The results in this text go back to PubChem BioAssay (NCI).

Some test systems named below: A549 NSCLC; BT-549 breast; HOP-62 NSCLC; K-562 leukemia; MDA-MB-231 breast; OVCAR-4 ovarian; OVCAR-8 ovarian; SN12C renal; LXFL 529 NSCLC; M19-MEL melanoma.
Holding throughout (assay): growth of human tumour cells (NCI), 48 h

Molecules are shown by their SMILES.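 Grown in 96-well plates, cells were treated for 48 hours with each compound at five concentrations. Insufficient inhibition: endpoint recorded as highest concentration tested. GI50 is the concentration that inhibits growth by half. TGI: total growth inhibition.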

Turning to `O=C1CSC(=S)N1Cc1cccnc1`, the GI50 in the assay with A549 NSCLC is 23.9 µM; in the assay with BT-549 breast, 18.6 µM; with HOP-62 NSCLC, 47 µM; in the assay on K-562 leukemia, 3.75 µM; in the assay on MDA-MB-231 breast, 4.47 µM; with OVCAR-4 ovarian it was 7.78 µM. The figures for the GI50 in the assay on OVCAR-8 ovarian and with SN12C renal were 11.3 µM and 14.5 µM, respectively. Besides, the TGI is 58.9 µM in the assay with A549 NSCLC; 44.3 µM with BT-549 breast; more than 100 µM in the assay on HOP-62 NSCLC; more than 100 µM with K-562 leukemia; 17.2 µM in the assay with MDA-MB-231 breast; 25.4 µM in the assay on OVCAR-4 ovarian. Further, the TGI was determined as 38 µM in the assay on OVCAR-8 ovarian and 29.2 µM in the assay on SN12C renal.

In the case of `COc1ccc(/C(=N\O)c2cc(OC)c(OC)c(OC)c2)c(OC)c1N`, the GI50 is 6.26 µM with A549 NSCLC; 3.86 µM with BT-549 breast; 4.26 µM in the assay with HOP-62 NSCLC; 1.5 µM with K-562 leukemia; 4.6 µM in the assay on MDA-MB-231 breast; 12.4 µM in the assay on OVCAR-4 ovarian. Moreover, the GI50 was 5.52 µM in the assay with OVCAR-8 ovarian and 7.9 µM in the assay on SN12C renal. The TGI in the assay with A549 NSCLC, in the assay on BT-549 breast, in the assay with HOP-62 NSCLC, with K-562 leukemia, in the assay on MDA-MB-231 breast and in the assay on OVCAR-4 ovarian was more than 100 µM throughout. Moreover, the TGI in the assay on OVCAR-8 ovarian and in the assay on SN12C renal was more than 100 µM in each case.

For the compound `Cn1c(=O)c2[nH]c(C3CC(=O)CC(c4nc5c([nH]4)c(=O)n(C)c(=O)n5C)N3)nc2n(C)c1=O` (stereo not given), the TGI with A549 NSCLC, in the assay with BT-549 breast, with HOP-62 NSCLC, with K-562 leukemia, in the assay with MDA-MB-231 breast and in the assay with OVCAR-4 ovarian was more than 100 µM throughout. The TGI in the assay with OVCAR-8 ovarian and with SN12C renal was more than 100 µM each time.

In the case of `CO/N=C(\COc1ccc2c(c1)oc(=O)c1cc(OC)ccc12)c1ccc(F)cc1`, the GI50 in the assay with A549 NSCLC was 26.3 µM; in the assay on BT-549 breast it was 23.4 µM; in the assay with HOP-62 NSCLC, 16.4 µM; in the assay with K-562 leukemia, 23.9 µM; with MDA-MB-231 breast it was 15.8 µM; with OVCAR-4 ovarian, 21.2 µM. The GI50 was 26.7 µM in the assay on OVCAR-8 ovarian and 27.2 µM with SN12C renal. In addition, the TGI in the assay with A549 NSCLC worked out at 94.8 µM; with BT-549 breast, 55.2 µM; in the assay with HOP-62 NSCLC, 34.1 µM; in the assay on K-562 leukemia, 58.7 µM; with MDA-MB-231 breast, 42.8 µM; in the assay with OVCAR-4 ovarian, 58.3 µM. Besides, the TGI with OVCAR-8 ovarian and with SN12C renal was more than 100 µM each time.

On to `COc1cc(Nc2ncc3c(C)nc(-c4cccc(Oc5ccccc5)c4)n3n2)cc(OC)c1OC`, for which the GI50 with A549 NSCLC is 6.32 µM; in the assay with BT-549 breast it was 6.86 µM; in the assay with HOP-62 NSCLC, 10.6 µM; in the assay with K-562 leukemia, 10 µM; in the assay on MDA-MB-231 breast, 4.99 µM; in the assay with OVCAR-4 ovarian, 4.78 µM. Also, the GI50 with OVCAR-8 ovarian is 5.15 µM; in the assay with SN12C renal, 5.32 µM. Besides, the TGI was more than 25 µM in the assay with A549 NSCLC; more than 25 µM in the assay with BT-549 breast; more than 25 µM in the assay on HOP-62 NSCLC; more than 25 µM in the assay on K-562 leukemia; more than 24.2 µM in the assay on MDA-MB-231 breast; more than 25 µM in the assay on OVCAR-4 ovarian. Besides, the TGI in the assay on OVCAR-8 ovarian is more than 25 µM; with SN12C renal, more than 21.6 µM.

With `O=C1Nc2ccccc2/C1=C/c1ccccc1`, the TGI in the assay with A549 NSCLC was 90.7 µM; with BT-549 breast, 31.2 µM; in the assay with HOP-62 NSCLC, 38.5 µM; with K-562 leukemia, more than 100 µM; with MDA-MB-231 breast, 46.8 µM; in the assay with OVCAR-4 ovarian it was 83 µM. Also, the TGI in the assay with OVCAR-8 ovarian stood at 66.1 µM; in the assay on SN12C renal, 28.5 µM.

In the case of `COc1cc(C(=O)/C=C/c2c(-c3ccc(F)cc3)nc3ncccn23)cc(OC)c1OC`, the GI50 with A549 NSCLC is 3.34 µM; with BT-549 breast, 1.8 µM; with HOP-62 NSCLC, 3.12 µM; in the assay with K-562 leukemia, 3.03 µM; with MDA-MB-231 breast, 2.99 µM; with OVCAR-4 ovarian it was 2.93 µM. Further, the GI50 is 2.69 µM with OVCAR-8 ovarian and 2.26 µM with SN12C renal. Further, the TGI in the assay with A549 NSCLC was more than 100 µM; in the assay with BT-549 breast it was 19.4 µM; in the assay with HOP-62 NSCLC, 24.5 µM; in the assay on K-562 leukemia, more than 100 µM; with MDA-MB-231 breast it was 16.5 µM; in the assay with OVCAR-4 ovarian, more than 100 µM. In addition, the TGI was more than 100 µM in the assay on OVCAR-8 ovarian and 36.1 µM in the assay with SN12C renal.

Turning to `COc1cc2c(cc1OCCCCCn1c(-c3ccco3)nc3ccccc31)N=C[C@@H]1CCCN1C2=O`, the GI50 is less than 0.01 µM in the assay with A549 NSCLC; less than 0.01 µM with BT-549 breast; less than 0.01 µM in the assay on HOP-62 NSCLC; less than 0.01 µM in the assay on K-562 leukemia; less than 0.0141 µM in the assay with MDA-MB-231 breast; less than 0.014 µM in the assay with OVCAR-4 ovarian. Besides, the GI50 with OVCAR-8 ovarian and with SN12C renal was less than 0.01 µM each time. The TGI in the assay with A549 NSCLC is more than 100 µM; in the assay on BT-549 breast it was less than 0.0209 µM; in the assay on HOP-62 NSCLC, 1.1 µM; in the assay with K-562 leukemia it was more than 100 µM; with MDA-MB-231 breast it was 0.224 µM; in the assay on OVCAR-4 ovarian, more than 41.4 µM. The values for the TGI in the assay with OVCAR-8 ovarian and in the assay on SN12C renal were more than 36.8 µM and 11.3 µM, respectively.

`C=CCC12CC(=O)C=C1CCC1(C2)OCCO1` (stereo not given): the TGI in the assay on A549 NSCLC, with HOP-62 NSCLC, in the assay with K-562 leukemia, in the assay with LXFL 529 NSCLC, in the assay on M19-MEL melanoma and with OVCAR-4 ovarian was more than 100 µM each time. The same compound displayed a TGI with SN12C renal of more than 100 µM.

Take `CCCCCCCCCCCCSC(=NC)NC`: the GI50 in the assay on A549 NSCLC is 2.12 µM; with BT-549 breast it was 4.09 µM; in the assay on HOP-62 NSCLC, 1.94 µM; with K-562 leukemia, 1.95 µM; in the assay on MDA-MB-231 breast, 2.02 µM; in the assay with OVCAR-4 ovarian, 2.16 µM. Besides, the results for the GI50 in the assay on OVCAR-8 ovarian and in the assay with SN12C renal were 2.88 µM and 2.67 µM, respectively. In addition, the TGI in the assay with A549 NSCLC was 4.76 µM; in the assay with BT-549 breast it was 21 µM; with HOP-62 NSCLC it was 4.59 µM; in the assay on K-562 leukemia, 6.35 µM; in the assay with MDA-MB-231 breast, 4.15 µM; in the assay with OVCAR-4 ovarian, 5.61 µM. Further, the TGI with OVCAR-8 ovarian was more than 100 µM; in the assay on SN12C renal, 7.69 µM.
